Measurements as given in PubChem BioAssay AID248 (DTP/NCI, 2004).
Toxic doses and inconclusive results are not listed. Cut-off read from the data, not from the text of the source: active = T/C of 150% or more; inactive = T/C below 125%.

Test system: L1210 leukemia ip in BDF1 mice, survival T/C
Test: NCI In Vivo Anticancer Drug Screen. Data for tumor model L1210 Leukemia (intraperitoneal) in B6D2F1 (BDF1) mice
Details: endpoint: mean survival time, higher = longer survival
Procedure, shortened: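 Tumor was transplanted into mice, which were then dosed with test compound or vehicle alone. Survival was recorded for each group, and the treated figure was expressed relative to the control figure.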

[1] = dose: 50.0 mg/kg/injection, schedule: Q01DX009 (ip), vehicle: saline with Tween-80
[2] = dose: 100.0 mg/kg/injection, schedule: Q01DX009 (ip), vehicle: saline with Tween-80
[3] = dose: 100.0 mg/kg/injection, schedule: Q04DX003 (ip), vehicle: saline with Tween-80
[4] = dose: 200.0 mg/kg/injection, schedule: Q01DX009 (ip), vehicle: saline with Tween-80
[5] = dose: 200.0 mg/kg/injection, schedule: Q04DX003 (ip), vehicle: saline with Tween-80
[6] = dose: 100.0 mg/kg/injection, schedule: Q04DX003 (ip), vehicle: Klucel (hydroxypropylcellulose) (HPC)
[7] = dose: 400.0 mg/kg/injection, schedule: Q04DX003 (ip), vehicle: Klucel (hydroxypropylcellulose) (HPC)
[8] = dose: 100.0 mg/kg/injection, schedule: Q04DX003 (ip), vehicle: saline
[9] = dose: 200.0 mg/kg/injection, schedule: Q04DX003 (ip), vehicle: saline
[10] = dose: 400.0 mg/kg/injection, schedule: Q04DX003 (ip), vehicle: saline
[11] = dose: 100.0 mg/kg/injection, schedule: Q01DX009 (ip), vehicle: Klucel (hydroxypropylcellulose) (HPC)
[12] = dose: 200.0 mg/kg/injection, schedule: Q01DX009 (ip), vehicle: Klucel (hydroxypropylcellulose) (HPC)
[13] = dose: 200.0 mg/kg/injection, schedule: Q04DX003 (ip), vehicle: Klucel (hydroxypropylcellulose) (HPC)
[14] = dose: 400.0 mg/kg/injection, schedule: Q01DX009 (ip), vehicle: Klucel (hydroxypropylcellulose) (HPC)
[15] = dose: 100.0 mg/kg/injection, schedule: Q04DX002 (ip), vehicle: saline
[16] = dose: 200.0 mg/kg/injection, schedule: Q04DX002 (ip), vehicle: saline
[17] = dose: 25.0 mg/kg/injection, schedule: Q01DX009 (ip), vehicle: Klucel (hydroxypropylcellulose) (HPC)
[18] = dose: 50.0 mg/kg/injection, schedule: Q01DX009 (ip), vehicle: Klucel (hydroxypropylcellulose) (HPC)
[19] = dose: 12.5 mg/kg/injection, schedule: Q01DX009 (ip), vehicle: Klucel (hydroxypropylcellulose) (HPC)
[20] = dose: 100.0 mg/kg/injection, schedule: Q04DX002 (ip), vehicle: Klucel (hydroxypropylcellulose) (HPC)
[21] = dose: 200.0 mg/kg/injection, schedule: Q04DX002 (ip), vehicle: Klucel (hydroxypropylcellulose) (HPC)
[22] = dose: 400.0 mg/kg/injection, schedule: Q04DX002 (ip), vehicle: Klucel (hydroxypropylcellulose) (HPC)

Measured: T/C

O=C(Nc1ccc2c(c1)OCO2)O/N=C\c1cccnc1
inactive: dose: 12.5 mg/kg/injection, schedule: Q01DX009 (ip), vehicle: saline with Tween-80 97 % of control | dose: 25.0 mg/kg/injection, schedule: Q01DX009 (ip), vehicle: saline with Tween-80 105 % of control | [1] 100 % of control | [2] 86 % of control | [3] 100 % of control | [4] 91 % of control | [5] 113 % of control | dose: 400.0 mg/kg/injection, schedule: Q04DX003 (ip), vehicle: saline with Tween-80 111 % of control

COc1ccc(OC)c(NC(=O)N(CCO)C2CCCCC2)c1
inactive: [6] 90 % of control | [7] 97 % of control

CCCCCCCCCCCCOCCOCCOCC(N)=O
inactive: dose: 100.0 mg/kg/injection, schedule: Q01DX009 (ip), vehicle: saline 104 % of control | [8] 97 % of control | dose: 200.0 mg/kg/injection, schedule: Q01DX009 (ip), vehicle: saline 100 % of control | [9] 109 % of control | dose: 400.0 mg/kg/injection, schedule: Q01DX009 (ip), vehicle: saline 96 % of control | [10] 97 % of control

COc1cc([N+](C)(C)C)nc(OC)n1
inactive: dose: 22.0 mg/kg/injection, schedule: Q01DX Z (ip), vehicle: saline 98 % of control | dose: 34.0 mg/kg/injection, schedule: Q01DX Z (ip), vehicle: saline 110 % of control | dose: 50.0 mg/kg/injection, schedule: Q01DX Z (ip), vehicle: saline 104 % of control

CN(C)S(=O)(=O)Nc1cc(Cl)c(NS(=O)(=O)N(C)C)cc1Cl
inactive: [11] 94 % of control | [6] 91 % of control | [12] 96 % of control | [13] 93 % of control | [14] 102 % of control | [7] 98 % of control

CCCCCCCCCCCCC(=O)N1CCCCC1
inactive: [15] 91 % of control | [16] 102 % of control

CC(C)(C)CC(C)(C)c1ccc(OCCOC(=O)c2ccccc2C(=O)O)cc1
inactive: [17] 97 % of control | [18] 105 % of control | [11] 94 % of control

CC(C)c1ccc(N2C(=O)C=CC2=O)cc1
inactive: [19] 100 % of control | [17] 91 % of control

O=C(O)/C=C(/Oc1ccc(Cl)cc1Cl)C(=O)O
inactive: [20] 97 % of control | dose: 100.0 mg/kg/injection, schedule: Q04DX002 (ip), vehicle: saline with Tween-80 100 % of control | [21] 87 % of control | dose: 200.0 mg/kg/injection, schedule: Q04DX002 (ip), vehicle: saline with Tween-80 100 % of control | [22] 110 % of control | dose: 400.0 mg/kg/injection, schedule: Q04DX002 (ip), vehicle: saline with Tween-80 100 % of control

C[C@H]1C[C@@H]2[C@H]([C@@H](O)C[C@@]3(C)[C@H]2CC[C@]3(O)C(=O)CO)[C@@]2(C)C=CC(=O)C=C12
inactive: dose: 6.25 mg/kg/injection, schedule: Q01DX009 (ip), vehicle: Klucel (hydroxypropylcellulose) (HPC) 104 % of control | [19] 104 % of control | dose: 12.5 mg/kg/injection, schedule: Q01DX Z (sc), vehicle: water 107 % of control | [17] 102 % of control | dose: 25.0 mg/kg/injection, schedule: Q01DX Z (sc), vehicle: water 108 % of control | [18] 98 % of control | dose: 50.0 mg/kg/injection, schedule: Q01DX Z (sc), vehicle: water 107 % of control | [11] 107 % of control | dose: 100.0 mg/kg/injection, schedule: Q01DX Z (sc), vehicle: water 110 % of control | [12] 104 % of control | dose: 200.0 mg/kg/injection, schedule: Q01DX Z (sc), vehicle: water 115 % of control

Cc1cccc(NC(=O)C2CCC(C)(C(=O)O)C2(C)C)c1 (stereo unspecified)
inactive: [1] 101 % of control | [2] 101 % of control | [4] 96 % of control

COC(=O)C1=CC=CC1
inactive: dose: 100.0 mg/kg/injection, schedule: Q01DX005 (ip), vehicle: Klucel (hydroxypropylcellulose) (HPC) 103 % of control | [11] 104 % of control | dose: 200.0 mg/kg/injection, schedule: Q01DX005 (ip), vehicle: Klucel (hydroxypropylcellulose) (HPC) 98 % of control | [12] 104 % of control | dose: 400.0 mg/kg/injection, schedule: Q01DX005 (ip), vehicle: Klucel (hydroxypropylcellulose) (HPC) 95 % of control | [14] 93 % of control

COc1ccccc1CC(C)(C)O
inactive: [1] 98 % of control | [2] 95 % of control | [4] 101 % of control

CP(c1ccccc1)c1ccccc1
inactive: [18] 98 % of control | [11] 95 % of control | [6] 104 % of control | [13] 114 % of control

COc1ccc(CNCC(=O)OCc2ccccc2)cc1
inactive: [1] 91 % of control | [2] 100 % of control | [3] 102 % of control | [5] 101 % of control

CC[N+](C)(C)CC(C)C
inactive: dose: 75.0 mg/kg/injection, schedule: Q01DX001 (ip), vehicle: saline 104 % of control | dose: 150.0 mg/kg/injection, schedule: Q01DX001 (ip), vehicle: saline 107 % of control

O=C(O)c1ccccc1CC(O)(c1ccccc1)C(O)(Cc1ccccc1C(=O)O)c1ccccc1 (stereo unspecified)
inactive: dose: 100.0 mg/kg/injection, schedule: Q01DX001 (ip), vehicle: carboxymethylcellulose (CMC) 94 % of control | dose: 200.0 mg/kg/injection, schedule: Q01DX001 (ip), vehicle: carboxymethylcellulose (CMC) 102 % of control | dose: 400.0 mg/kg/injection, schedule: Q01DX001 (ip), vehicle: carboxymethylcellulose (CMC) 96 % of control

CCSC(=O)OCn1ncc2cc([N+](=O)[O-])ccc21
inactive: dose: 100.0 mg/kg/injection, schedule: Q01DX001 (ip), vehicle: saline 112 % of control | dose: 200.0 mg/kg/injection, schedule: Q01DX001 (ip), vehicle: saline 91 % of control | dose: 400.0 mg/kg/injection, schedule: Q01DX001 (ip), vehicle: saline 103 % of control

CCOC(=O)OC1C(OC)OC2COC(c3ccccc3)OC2C1OC(=O)OCC (stereo unspecified)
inactive: dose: 100.0 mg/kg/injection, schedule: Q04DX002 (ip), vehicle: other 103 % of control | dose: 200.0 mg/kg/injection, schedule: Q04DX002 (ip), vehicle: other 97 % of control | dose: 400.0 mg/kg/injection, schedule: Q04DX002 (ip), vehicle: other 100 % of control

Cc1c(N=CN(C)C)c(=O)n(-c2ccccc2)n1C
inactive: [11] 94 % of control | [6] 110 % of control | [12] 93 % of control | [13] 105 % of control | [14] 100 % of control | [7] 107 % of control

O=C(O)C[CH2][Ge](=[O])[O][Ge](=[O])[CH2]CC(=O)O
inactive: [15] 100 % of control | [16] 103 % of control | dose: 400.0 mg/kg/injection, schedule: Q04DX002 (ip), vehicle: saline 103 % of control

CCCCCCCCCCCCOc1ccc(C=Nc2ccc(C)cc2)cc1
inactive: [20] 109 % of control | [21] 109 % of control | [22] 95 % of control

O=C(O)CNCc1cc(=O)[nH]c(=O)[nH]1
inactive: [8] 94 % of control | [9] 97 % of control | [10] 105 % of control

CCCCCCCCCCCCC(C(=O)O)C1C=CCC1 (stereo unspecified)
inactive: dose: 100.0 mg/kg/injection, schedule: Q01DX001 (ip), vehicle: other 95 % of control | dose: 200.0 mg/kg/injection, schedule: Q01DX001 (ip), vehicle: other 90 % of control | dose: 400.0 mg/kg/injection, schedule: Q01DX001 (ip), vehicle: other 101 % of control

CC1(C)C(O)(C#N)C(C)(C)C1(O)C#N (stereo unspecified)
inactive: dose: 3.13 mg/kg/injection, schedule: Q01DX009 (ip), vehicle: saline 107 % of control | dose: 6.25 mg/kg/injection, schedule: Q01DX009 (ip), vehicle: saline 115 % of control | dose: 12.5 mg/kg/injection, schedule: Q01DX009 (ip), vehicle: saline 105 % of control
